Data on one molecule can be found in patent publication EP4717277A1, “USE OF DRUG CONJUGATE IN TREATING TUMOR DISEASE AND METHOD THEREFOR” (Sichuan Kelun-Biotech Biopharmaceutical Co., Ltd., priority 2023, dated 2024).

Data set [1] in a line: Toxicokinetic behavior of the conjugate and released toxin molecules after repeated intravenous dosing. The format is in vivo, cynomolgus monkeys. The settings on record: after the last dosing with 50 mg/kg conjugate A.
Experimental: The cynomolgus monkeys were divided into four groups according to different doses: control group, 25 mg/kg dose group, 50 mg/kg dose group and 75 mg/kg dose group, with 5 males and 5 females in each group. […] For the monkeys in each group, blood samples were collected before and immediately after, and 4 h, 24 h, 48 h, 96 h and 168 h after the first and last dosing (0-1 min after the end of dosing), 1 h before and immediately after the second and third dosing (0-1 min after the end of dosing), and 336 h after the last dosing.
Data set [2] in a line: Clinical trial, pharmacokinetic study of the dose-escalation cohort. The class given is in vivo, human. To be noted: patients, first 4-week cycle.
Experimental: Based on the patient's weight, a dose escalation design with five dose cohorts of 2, 4, 6, 9 and 12 mg/kg was employed, which were injected intravenously once every two weeks, every 28 days as a cycle, and were given every cycle until the disease progressed or an intolerable toxic reaction occurred. The toxicity of all planned dose groups and some intermediate dose groups was evaluated by BLRM. Based on the model analysis, the sponsor and the researcher jointly decided the decision of dose increase.

For `CC[C@@]1(O)C(=O)OCc2c1cc1n(c2=O)Cc2c-1nc1ccccc1c2CCN(C(C)C)S(C)(=O)=O` [toxins], in data set [1] (female monkeys), the “exposure to the toxin molecules” value came out at 3.85 µg·h/mL. Besides, in data set [1] (male monkeys), the “exposure to the toxin molecules” value was found to be 5.86 µg·h/mL. Moreover, in data set [2], the “plasma exposure of free payload (area under the curve (AUC)) relative to that of Conjugate A” value is on record as around 5% and the “plasma exposure of free payload (maximum plasma concentration (Cmax)) relative to that of Conjugate A” value is “approximately 6%”.
